# From US20090041719A1, “Method for screening therapeutic agent for glomerular disorder” (priority 2006, published 2009)
# Several values for one entry are separate records, joined by “and”; a condition that tells them apart may be missing. Equal entries are not always repeated.
# Assays:
# [1] = system: glomerular lesions; renal tubulointerstitial lesions; settings: International Publication WO 2004/024185 and 01/72730 pamphlets; cited from earlier work
# [2] = system: rat unilateral ureteral obstruction release model; assay: Rat unilateral ureteral obstruction release model: glomerular and tubulointerstitial lesions, Asc-1+ cells; format: in vivo, SD rat; settings: for Improvement of glomerular lesion: Yes = lesioned glomeruli per 50 glomeruli reduced to less than or equal to half the control average; for Improvement of tubulointerstitial lesion: Yes = reduced to less than or equal to half the control average;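 on Tubulointerstitial lesion: atrophy of tubules associated with dilatation of tubules (score): ± very light + light ++ moderate +++ high change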;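 on Tubulointerstitial lesion: fibrosis of interstitial tissue (score): ± very light + light ++ moderate +++ high change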;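 on Tubulointerstitial lesion: thickness of basement membrane (score): ± very light + light ++ moderate +++ high change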
# Description: An experimental model was produced in accordance with the method devised and established by Ishibashi (Michio Ishibasi et al., Japanese Journal of Nephrology 42: 248, 2000), using a 8 to 9-week-old male SD rat weighing about 280 g. […] On day 14 after obstruction, the obstruction was released, and the urinary tract was reconstructed using a cuff. That is, 14 days later, the ligated ureteral obstruction part was partially removed, and a 25 gauge polyethylene tube (made by Nippon Sherwood) as a cuff was inserted from the lower normal ureteral stump and placed in the lumen. Next, the cuff was placed also in the expanded upper ureter, and both parts were ligated for fixation with a 7-0 nylon suture to reconstruct the urinary tract. At the same time, the right kidney was removed. The weight was measured after obstruction release, and the blood was collected on days 2, 5, and 7 after release for serum creatinine determination. On day 7, the rat was sacrificed under anesthesia and the left obstruction release kidney was removed. The weight of the removed kidney was measured, and the kidney pathomorphological examination was performed.
# The biological effects of the test compound were studied in vivo using the model obtained in the above procedure 1). The test compound in the form of bulk powder was dissolved in sterilized physiologic saline together with gum arabic, where the concentration of the gum arabic was adjusted to 5% and the concentration of the test compound was adjusted to 30 mg/ml. The amount of 30 mg/kg was subcutaneously administered every day. Daily administration was continued for 21 days during 14 days of obstruction and 7 days after obstruction release. For controlled comparison, the solvent of 5% gum arabic was administered alone.
# On day 22 from the administration of the test compound, the rat was sacrificed under anesthesia, and the left obstruction release kidney was removed and neutral formalin fixed. The fixed renal tissue embedded in paraffin was sliced into 4-micrometer-thick pieces for examination.
# The tissue section was observed under a microscope in order to count the number of glomeruli and the number of glomeruli having a lesion (expansion of a tubular pole associated with swollen Bowman's capsule epithelial cells or hypertrophy of a Bowman's capsule basal membrane) in the field of view, and the number of glomeruli having the lesion (referred to as “lesioned glomerulus”) per 50 glomeruli was calculated.
# As for the effectiveness to improve of glomerular lesions, when the number of lesioned glomeruli per 50 glomeruli was reduced to less than or equal to half the average number of those of the control group, it was determined as improved.
# An affinity-purified anti-rat Asc-1 polyclonal antibody (rabbit) was prepared as follows: that is, in order to prepare an anti-Asc-1 peptide polyclonal antibody (rabbit), an oligopeptide (PSPLPITDKPLKTQC (SEQ. ID NO: 4)) corresponding to amino acid residues of 517-530 of Asc-1 was synthesized (see J Biol Chem (2000); 275: 9690-9698), keyhole limpet hemocyanine was bound to the C-terminal cysteine as an adjuvant, and […] was immunized therewith. The serum was collected on days 7 and 14 from the immunization. The serum was concentrated by means of an adsorption-dissociation operation using an affinity column to which an oligopeptide corresponding to amino acid residues of 517-530 of Asc-1 was bound in order to obtain an affinity-purified antibody having a protein content of 0.5 mg/ml. As for immunopathological examination, paraffin rat […] diluted with PBS to the optimal concentration was used.
# The immune tissue staining was performed based on the protocol of Ventana HX system bench mark (Ventana Japan K.K., Tokyo) including the automated immunostaining device manufactured by Ventana Japan K.K. After deparaffinization, the tissue section was heat-treated at 100° C. for 1 hour. […]
# [3] = group average ± standard deviation
# [4] = individual animal, 30 mg/kg s.c. daily for 21 days, 30 mg/kg
# [5] = individual animal, points: ± 0.5, + 1, ++ 2, +++ 3
# [6] = individual animal, sum of the three scores
structure (smiles),measurement,setting,value
C[C@@H](OC[C@]1(Oc2ccc(F)cc2)CCC(=O)O1)c1ccc2ccccc2c1 [(4-2)],known action on renal tubulointerstitial lesions,[1],selectively inhibit the renal tubulointerstitial lesions
same,"Glomerular lesion: number of lesioned glomeruli per 50 glomeruli, expansion of tubular pole associated with swollen Bowman's capsule epithelial cells",[2]; [3],11 ± 6 per 50 glomeruli
same,"Glomerular lesion: number of lesioned glomeruli per 50 glomeruli, hypertrophy of Bowman's capsule basal membrane",[2]; [3],18 ± 9 per 50 glomeruli
same,Number of Asc-1+ cells per 50 glomeruli,[2]; [3],4.03 ± 3.06 per 50 glomeruli
same,Tubulointerstitial lesion: atrophy of tubules associated with dilatation of tubules (score),[2]; [3],1.0 ± 0
same,Tubulointerstitial lesion: fibrosis of interstitial tissue (score),[2]; [3],1.5 ± 0.6
same,Tubulointerstitial lesion: thickness of basement membrane (score),[2]; [3],0.9 ± 0.3
same,Tubulointerstitial lesion: total score,[2]; [3],3.4 ± 0.5
same,"Glomerular lesion: number of lesioned glomeruli per 50 glomeruli, expansion of tubular pole associated with swollen Bowman's capsule epithelial cells",[2]; [4],16 per 50 glomeruli (2×) and 6 per 50 glomeruli and 7 per 50 glomeruli
same,"Glomerular lesion: number of lesioned glomeruli per 50 glomeruli, hypertrophy of Bowman's capsule basal membrane",[2]; [4],29 per 50 glomeruli and 9 per 50 glomeruli and 20 per 50 glomeruli and 13 per 50 glomeruli
same,Number of Asc-1+ cells per 50 glomeruli,[2]; [4],1.81 per 50 glomeruli and 7.39 per 50 glomeruli and 5.83 per 50 glomeruli and 1.10 per 50 glomeruli
same,Improvement of glomerular lesion,[2]; individual animal,No (2×) and Yes (2×)
same,Improvement of tubulointerstitial lesion,[2]; individual animal,No and Yes (3×)
same,Tubulointerstitial lesion: atrophy of tubules associated with dilatation of tubules (score),[2]; [5],1
same,Tubulointerstitial lesion: fibrosis of interstitial tissue (score),[2]; [5],2 (2×) and 1 (2×)
same,Tubulointerstitial lesion: thickness of basement membrane (score),[2]; [5],1 (3×) and 0.5
same,Tubulointerstitial lesion: total score,[2]; [6],4.0 and 3.5 and 3.0 (2×)
C[C@@H](OC[C@@]1(Oc2ccc(F)cc2)CCC(=O)O1)c1ccc2ccccc2c1 [(3-2)],known action on glomerular lesions,[1],selectively inhibit the glomerular lesions
same,"Glomerular lesion: number of lesioned glomeruli per 50 glomeruli, expansion of tubular pole associated with swollen Bowman's capsule epithelial cells",[2]; [3],6 ± 3 per 50 glomeruli
same,"Glomerular lesion: number of lesioned glomeruli per 50 glomeruli, hypertrophy of Bowman's capsule basal membrane",[2]; [3],6 ± 1 per 50 glomeruli
same,Number of Asc-1+ cells per 50 glomeruli,[2]; [3],11.06 ± 3.51 per 50 glomeruli
same,Tubulointerstitial lesion: atrophy of tubules associated with dilatation of tubules (score),[2]; [3],2.6 ± 0.9
same,Tubulointerstitial lesion: fibrosis of interstitial tissue (score),[2]; [3],2.2 ± 0.4
same,Tubulointerstitial lesion: thickness of basement membrane (score),[2]; [3],2.2 ± 0.4
same,Tubulointerstitial lesion: total score,[2]; [3],7.0 ± 1.2
same,"Glomerular lesion: number of lesioned glomeruli per 50 glomeruli, expansion of tubular pole associated with swollen Bowman's capsule epithelial cells",[2]; [4],10 per 50 glomeruli and 6 per 50 glomeruli (2×) and 5 per 50 glomeruli and 3 per 50 glomeruli
same,"Glomerular lesion: number of lesioned glomeruli per 50 glomeruli, hypertrophy of Bowman's capsule basal membrane",[2]; [4],6 per 50 glomeruli and 5 per 50 glomeruli (2×) and 8 per 50 glomeruli and 7 per 50 glomeruli
same,Number of Asc-1+ cells per 50 glomeruli,[2]; [4],9.48 per 50 glomeruli and 9.55 per 50 glomeruli and 14.91 per 50 glomeruli and 6.84 per 50 glomeruli and 14.52 per 50 glomeruli
same,Improvement of glomerular lesion,[2]; individual animal,Yes
same,Improvement of tubulointerstitial lesion,[2]; individual animal,No
same,Tubulointerstitial lesion: atrophy of tubules associated with dilatation of tubules (score),[2]; [5],3 (4×) and 1
same,Tubulointerstitial lesion: fibrosis of interstitial tissue (score),[2]; [5],2 (4×) and 3
same,Tubulointerstitial lesion: thickness of basement membrane (score),[2]; [5],2 (4×) and 3
same,Tubulointerstitial lesion: total score,[2]; [6],7 (2×) and 8 (2×) and 5
